Key:
[1] = target: T1, HDAC1 enzyme (Homo sapiens, UniProt Q13547); assay: In vitro HDAC assay for determination of IC50 values (BIOMOL fluorescent-based HDAC activity assay); assay type: biochemical
T1 construct: Amplification of human HDAC1 coding region from this cDNA library was cloned separately into the baculovirus expression pDEST20 vector; made in house; host or cells: SF9 insect cells, pDEST20-HDAC1 baculovirus
Summary of the method: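 Recombinant GST-HDAC1, cloned from SW620 cDNA and expressed in Sf9 cells, tested in a fluorogenic Fluor de Lys deacetylase assay. Developer was added for 10 min and fluorescence read at 360/460 nm. IC50 came from concentration series.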

[2] = test system: Colo205 cells; assay: Cell-based proliferation assay for GI50 (CyQUANT), Colo205; details: Homo sapiens, COLO 205, 96 h treatment, read-out: Cellular or Growth Inhibition Activity in Colo205 cells, GI50
Summary of the method: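 Cells were seeded at 1000 (PC3), 5000 (Colo205), 6000 (HCT116) or 4000 (HEP3B) per well and left 24 h at 37° C. Compound treatment lasted 96 h. Growth was read by CyQUANT, and GI50 (50% growth inhibition) came from dose-response curves.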

[3] = test system: HCT116; assay: Cell-based proliferation assay for GI50 (CyQUANT), HCT116; details: Homo sapiens, HCT-116; HCT116, 96 h treatment; read-out: Cellular or Growth Inhibition Activity, GI50, HCT116
Procedure: (§1) Human colon cancer cell lines (Colo205, HCT116), Ovarian cancer cell line (A2780), Hepatoma cell line (HEP3B), Prostate cancer cell line (PC3) were obtained from ATCC or ECACC. Colo205 cells were cultivated in RPMI 1640 containing 2 mM L-Glutamine, 5% FBS, 1.0 mM Na Pyruvate, 1 U/ml of penicillin and 1 μg of streptomycin. HCT116 cells were cultivated in McCoy's containing RPMI 1640 containing 2 mM L-Glutamine, 5% FBS, 1 U/ml of penicillin and 1 μg of streptomycin. A2780 cells were cultivated in RPMI 1640 containing 2 mM L-Glutamine, 5% FBS, 1 U/ml of penicillin and 1 μg of streptomycin. HEP3B cells were cultivated in EMEM containing 2 mM L-glutamine, 5% FBS, 1% non essential amino acid, 1 mM Na Pyruvate, 1 U/ml of penicillin and 1 μg of streptomycin. PC3 cells were cultivated in F12K, 2 mM L-glutamine, 5% FBS, 1 U/ml of penicillin and 1 μg of streptomycin. PC3, Colo205, and HCT116 cells were seeded in 96-wells plate at 1000, 5000 and 6000 cells per well respectively. A2780 and HEP3B cells were seeded in 96-wells plate at 4000 cells per well respectively. The plates were incubated at 37° C., 5% CO2, for 24 h. Cells were treated with compounds at various concentrations for 96 h. Cell growth was then monitored using CyQUANT® cell proliferation assay (Invitrogen Pte Ltd). Dose response curves were plotted to determine GI50 values for the compounds using XL-fit (ID Business Solution, Emeryville, Calif.). GI50 is defined as the concentration of compound required for 50% inhibition of cell growth.

[4] = test system: A2780; assay: Cell-based proliferation assay for GI50 (CyQUANT), A2780; details: Homo sapiens; A2780, 96 h treatment; read-out: Cellular or Growth Inhibition Activity, GI50, A2780
Procedure: as §1

[5] = test system: PC3; assay: Cell-based proliferation assay for GI50 (CyQUANT), PC3; details: Homo sapiens, PC-3; PC3, 96 h treatment; read-out: Cellular or Growth Inhibition Activity, GI50, PC3
Procedure: as §1

[6] = test system: HEP3B; assay: Cell-based proliferation assay for GI50 (CyQUANT), HEP3B; details: Homo sapiens, 96 h treatment, read-out: Cellular or Growth Inhibition Activity, GI50, HEP3B
Procedure: as §1

[7] = Measurement of microsomal stability; assay type: in vitro ADME; details: pooled human liver microsomes, pH 7.4; human liver microsome, 5 μM test compound, 1.0 mg/ml microsomal protein
Procedure: Metabolic stability measurements in the in vitro using liver microsomes aids in the prediction of the in vivo hepatic clearance and the compound stability towards phase I biotransformation reactions mediated by P450 isozymes.
Pooled human liver microsome (HLM was purchased from BD Gentest (BD BioSciences). The incubations consisted of test compound (5 μM) or control compound (Verapamil), NADPH-generating system solution A (25 mM NADP^+, 66 mM glucose-6-phosphate, 66 mM MgCl2 in H2O), NADPH-generating system solution B (40 U/ml glucose-6-phosphate dehydrogenase in 5 mM sodium citrate) and 1.0 mg/ml microsomal protein, respectively, in 100 mM potassium phosphate buffer (pH 7.4). Samples were incubated for 0, 5, 15, 30, 45, 60 min. Reaction was terminated with ice-cold 80% acetonitrile and 20% DMSO. Samples were subsequently centrifuged at 4° C. for 15 min at 2,000 rpm. 100 μL of the supernatant was transferred to the LC-MS Plate for analysis. Before quantitative analysis, the compound was tuned in LC/MS machine to get the optimized MS condition. Liquid chromatography was performed on a Luna C18 column (Phenomenex U.S.A, Torrance, Calif.) (2×50 mm, 5 μM). % of the compound remaining (by area) at each time point is calculated with respect to time 0 min. Plot % remaining against time (min) to obtain the curve and use the Prism software to obtain the t1/2.

[8] = In vivo pharmacokinetic (PK) studies; details: mouse, plasma, po; mice, hydrochloric acid salt form (2HCl), 50 mg/kg
Procedure: Compound was dissolved in appropriate solution (saline or DMA and Cremaphor in saline) at 1 mg/ml for intravenous (IV) administration, or in 0.5% methyl cellulose, 0.1% Tween 80 in water at 5 mg/ml for oral administration. Mice were randomized according to body weight, grouped three per time point. Mice were administered single IV dose (10 mg/kg) via tail vein, or single oral dose (50 mg/kg) via gavage. At pre-defined time points (predose, 5 or 10, 30 min, 1, 2, 4, 8, and 24 h), one group of mice was sacrificed by overdose CO2 and blood samples were collected by cardiac puncture. The blood samples were centrifuged immediately for 10 min at 3000 rpm to separate plasma, and plasma was kept frozen at −80° C. until analysis by LC/MS/MS. Before sample analysis, the method was developed for LC/MS/MS assay. The method was validated for signal-response of the calibration standards, auto-sampler stability for ˜15 hours intra-day and inter-day calibration curve using eight calibration standards excluding the blank plasma. QC samples at three different concentrations in triplicates were prepared to determine the accuracy and precision. The extracted QC samples were compared to unextracted samples to determine the extraction efficiency of the analyte. LLOQ was determined by using triplicate samples of 1 ng/mL and 2 ng/mL to obtain accuracy and precision at the low end. Samples were analysed using the validated method. Data was analyzed by the non-compartmental model using WinNolin 4.0 software (Pharsight, Mountain View, Calif., USA). The mean values for the plasma compound concentration-time profiles were used in mouse PK study.
The PK parameter AUC0-last providing the information on the overall exposure of the drug in vivo is one of the key PK/PD parameters that helps in predicting the efficacy of an anti-cancer compound. The higher the AUC value, the better will be the in vivo efficacy of the compound at similar in vitro potency.

T1 sequence (Q13547 whole entry): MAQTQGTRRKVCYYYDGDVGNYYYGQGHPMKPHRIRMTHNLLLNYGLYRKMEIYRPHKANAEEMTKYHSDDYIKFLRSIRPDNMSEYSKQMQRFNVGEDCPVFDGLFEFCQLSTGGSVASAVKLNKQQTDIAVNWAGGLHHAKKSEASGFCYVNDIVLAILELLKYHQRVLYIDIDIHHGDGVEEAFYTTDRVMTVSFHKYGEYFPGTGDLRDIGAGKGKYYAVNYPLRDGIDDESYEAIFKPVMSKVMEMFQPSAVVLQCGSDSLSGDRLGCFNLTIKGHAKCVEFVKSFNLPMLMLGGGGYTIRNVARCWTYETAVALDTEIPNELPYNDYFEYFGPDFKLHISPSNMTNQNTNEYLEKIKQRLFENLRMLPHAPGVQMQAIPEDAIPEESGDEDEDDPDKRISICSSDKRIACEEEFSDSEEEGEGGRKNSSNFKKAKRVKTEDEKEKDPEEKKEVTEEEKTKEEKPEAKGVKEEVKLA

IC50 [1] [nM]	GI50 [2] [nM]	GI50 [3] [nM]	GI50 [4] [nM]	GI50 [5] [nM]	GI50 [6] [nM]	half-life at 5 μM [7] [min]	AUC(0-t) [8] [ng·h/mL]	Compound
42	500	500 to 1000	< 500	< 500	500 to 1000	> 30	1870	CN(C)CC(C)(C)Cn1c(CC(C)(C)C)nc2cc(/C=C/C(=O)NO)ccc21 [Compound 1, 3-[1-(3-Dimethylamino-2,2-dimethyl-propyl)-2-(2,2-dimethyl-propyl)-1H-benzoimidazol-5-yl]-N-hydroxy-acrylamide]
52	560	500 to 1000	500 to 1000	< 500	1000 to 5000	> 30	1840	CCCCc1nc2cc(/C=C/C(=O)NO)ccc2n1CCN(CC)CC [Compound 8, 3-[2-Butyl-1-(2-diethylamino-ethyl)-1H-benzoimidazol-5-yl]-N-hydroxy-acrylamide]

From patent publication US8143282B2, “Heterocyclic compounds” (S*BIO Pte Ltd., priority 2005, dated 2012)
